As usually defined, the IC50 is the concentration that inhibits the measured activity by half.

The target in assay [1] is proton pump(H^+ /K^+ ATPase). Nature of the assay: Inhibition of proton pump(H^+ /K^+ ATPase) activity. As to conditions: pH 6.0, 37° C., 30 minutes preincubation and 30 minutes reaction; read-out: IC50 Test compound. Format: biochemical. The protocol: Test 1: Inhibition of proton pump(H^+ /K^+ ATPase) activity
A proton pump enzyme source was prepared by the same method as in Experiment 1-1 of WO 94/14795. Further, the inhibitory effect of proton pump activity was measured by the same method as in Experiment 1-2 of WO 94/14795.
Namely, the proton pump activity stimulated by Mg^++ was used as a negative comparative group, and the activity stimulated by Mg^++ and K^+ was used as a positive comparative group. The comparative compound was omeprazole.
Test tubes were divided into 4 groups: Group 1 as negative comparative group(n=3), Group 2 as positive comparative group(n=3), Group 3(n=5×2) to be administered with the compound of the present invention and Group 4(n=5×2) to be administered with the comparative compound.
The inhibitory effects of Groups 3 and 4 on proton pump activity were measured by employing the compound prepared in Example and omeperazole, respectively, each of which was dissolved in dimethylsulfoxide at 5 different concentrations.
To each of Groups 1, 2, 3 and 4 were added 100 μl of magnesium chloride(40 mM) dissolved in 40 mM Tris-HCl buffer(pH 6.0) and 100μ of the enzyme source. Then, 50μ of potassium chloride(50 mM) and 50 μl of ammonium chloride(6 mM) dissolved in 40 mM Tris-HCl buffer(pH 6.0) were added to all groups except for Group 1.
10 μl of dimethylsulfoxide was added to each of Groups 1 and 2; and to Group 3 was added 10 μl of the solution in which the compound prepared in Example was dissolved in dimethylsulfoxide at 5 different concentrations(n=5×2). To Group 4, 10 μl of the solution prepared by dissolving omeprazole in dimethylsulfoxide at 5 different concentrations(37.6, 21.4, 12.2, 7.0 and 4.0 μM) was added(n=5×2). 40 mM Tris-HCl buffer(pH=6.0) was added thereto so as to make the total volume 400 μl.
Thereafter, the test tubes of each Group were placed at 37° C. for 30 minutes for the preincubation. 100 μl of ATP solution (6.6 mM) was added until the reaction volume became 500 μl. After the reaction was carried out at 37° C. for 30 minutes, 25% cold trichloroacetic acid was added to terminate the enzyme reaction. The released inorganic phosphate was measured by an automatic analyzer(Express 550, Corning).
The difference between Group 1 and Group 2 represents the proton pump activity activated by K^+ only. The inhibition percentages of Groups 3 and 4 were calculated from Litchfield-wilcoxon equation[see, e.g., J. pharmacol. Exp. Ther., 96, 99(1949)]. The concentrations of the test compounds which inhibit 50% of the proton pump activity are represented as IC50 in Table 1.

For another assay, the system named is gastric secretion. Put plainly: Inhibition of gastric secretion (pylorus ligation, Shay method). The assay is classed as in vivo, Male Sprague-Dawley rats. As to conditions: 20 mg/kg intraduodenally, 5 hours; for Rel. Conc.: acid concentration relative to omeprazole; for Relative Acid Output: acid output relative to omeprazole; for Rel. Vol.: gastric juice volume relative to omeprazole. The protocol: Inhibition of gastric secretion […] Under ether anesthesia, the abdomen was incised, and the pylorus was ligated. […] After closing the abdominal cavity, the rats were placed for 5 hours and then killed by cervical dislocation. The stomach was extracted to obtain gastric juice. The gastric juice was centrifuged at 1,000 g to remove precipitates. The amount and acidity of the gastric juice were measured. Relative volumes, relative acid concentrations and relative acid outputs of the test compounds were calculated from equations(I), (II) and (III) and the results are shown in Table 2. […] Group 3) (II) […] (III)

Where a name gives a salt, the structure may show the parent alone.

With `Cc1cc(N2CCc3ccccc3C2)nc(Nc2ccc(F)cc2C)n1.Cl` [Example 34, 6-methyl-2-(2-methyl-4-fluorophenylamino)-4-(1,2,3,4-tetrahydroisoquinolin-2-yl)pyrimidine hydrochloride], the IC50 in assay [1] worked out at 1 µM. In addition, in the assay with gastric secretion, the Rel. Conc. was 1, the “Relative Acid Output” value is on record as 0.99 and the Rel. Vol. amounted to 0.99.

Regarding `CCc1nc(Nc2ccc(F)cc2)nc(N2CCc3ccccc3C2C)c1C.Cl` (stereo not shown) [Example 27, 5-methyl-6-ethyl-2-(4-fluorophenylamino)-4-(1-methyl-1,2,3,4-tetrahydroisoquinolin-2-yl)pyrimidine hydrochloride], the IC50 in assay [1] came out at 2.1 µM. In addition, in the assay on gastric secretion, the Rel. Conc. came to 0.61, the “Relative Acid Output” value amounted to 0.81 and the Rel. Vol. was 0.7.

As for `CCc1nc(Nc2ccc(F)cc2C)nc(N2CCc3ccccc3C2C)c1C.Cl` (stereo not shown) [Example 26, 5-methyl-6-ethyl-2-(2-methyl-4-fluorophenylamino)-4-(1-methyl-1,2,3,4-tetrahydroisoquinolin-2-yl)pyrimidine hydrochloride], the IC50 in assay [1] worked out at 0.8 µM. Besides, in the assay with gastric secretion, the Rel. Conc. was found to be 0.53, the “Relative Acid Output” value is reported as 0.73 and the Rel. Vol. was determined as 0.6.

As for `Cc1ccccc1Nc1nc(C)c(C)c(N2CCc3ccccc3C2C)n1.Cl` (stereo not shown) [Example 24, 5,6-Dimethyl-2-(2-methylphenylamino)-4-(1-methyl-1,2,3,4-tetrahydroisoquinolin-2-yl)pyrimidine hydrochloride], the IC50 in assay [1] came out at 0.6 µM. Moreover, in the assay with gastric secretion, the Rel. Conc. was 1.03, the “Relative Acid Output” value is listed as 1.01 and the Rel. Vol. turned out to be 1.

As for `Cc1cc(F)ccc1Nc1nc2c(c(N3CCc4ccccc4C3)n1)CCC2` [Example 47, 2-(2-methyl-4-fluorophenylamino)-4-(1,2,3,4-tetrahydroisoquinolin-2-yl)cyclopenta[d]pyrimidine hydrochloride], in assay [1], the IC50 is about 5 µM. Moreover, in the assay with gastric secretion, the Rel. Conc. is 0.14, the “Relative Acid Output” value turned out to be 0.38 and the Rel. Vol. was determined as 0.38.

With `Cc1cc(F)ccc1Nc1nc(C)c(C)c(N2CCc3ccccc3[C@@H]2C)n1.Cl` [Example 14, (S)-5,6-dimethyl-2-(2-methyl-4-fluorophenylamino)-4-(1-methyl-1,2,3,4-tetrahydroisoquinolin-2-yl)pyrimidine hydrochloride], the IC50 in assay [1] came out at 0.7 µM. Also, in the assay on gastric secretion, the Rel. Conc. stood at 0.3, the “Relative Acid Output” value is reported as 0.72 and the Rel. Vol. was found to be 0.53.

Regarding `Cc1nc(Nc2ccccc2)nc(N2CCc3ccccc3[C@@H]2C)c1C` [Example 23, hydrochloride], the IC50 in assay [1] was found to be 2 µM. Besides, in the assay with gastric secretion, the Rel. Conc. is 0.78, the “Relative Acid Output” value came out at 0.88 and the Rel. Vol. is 0.92.

In the case of `Cc1nc(N(C)c2ccccc2)nc(N2CCc3ccccc3[C@H]2C)c1C.Cl` [Example 19, (R)-5,6-Dimethyl-2-(N-methylphenylamino)-4-(1-methyl-1,2,3,4-tetrahydroisoquinolin-2-yl)pyrimidine hydrochloride], in assay [1], the concentration for half-maximal inhibition (IC50) was found to be 3.9 µM. In the assay on gastric secretion, the Rel. Conc. came out at 1.86, the “Relative Acid Output” value is recorded as 1.43 and the Rel. Vol. worked out at 1.8.

Turning to `CC1c2ccccc2CCN1c1nc(Nc2ccc(F)cc2)nc2c1CCC2` (stereo not shown) [Example 30, hydrochloride], the half-maximal inhibitory concentration (IC50) in assay [1] is about 8.4 µM. Moreover, in the assay with gastric secretion, the Rel. Conc. amounted to 0.2, the “Relative Acid Output” value was 0.39 and the Rel. Vol. came out at 0.33.

Turning to `Cc1nc(N(C)c2ccccc2)nc(N2CCc3ccccc3[C@@H]2C)c1C.Cl` [Example 20, (S)-5,6-dimethyl-2-(N-methylphenylamino)-4-(1-methyl-1,2,3,4-tetrahydroisoquinolin-2-yl)pyrimidine hydrochloride], the IC50 in assay [1] was found to be 4.4 µM. Also, in the assay on gastric secretion, the Rel. Conc. was determined as 1.75, the “Relative Acid Output” value is 1.28 and the Rel. Vol. was found to be 1.66.

Take `Cc1cc(F)ccc1Nc1nc2c(c(N3CCc4ccccc4C3)n1)CCCC2.Cl` [Example 48, 2-(2-methyl-4-fluorophenylamino)-4-(1,2,3,4-tetrahydroisoquinolin-2-yl)-5,6,7,8-tetrahydroquinazoline hydrochloride]: the 50% inhibitory concentration (IC50) in assay [1] is about 5.5 µM. In the assay with gastric secretion, the Rel. Conc. amounted to 0.04, the “Relative Acid Output” value worked out at 0.16 and the Rel. Vol. amounted to 0.17.

On to `Cc1cc(Nc2ccc(F)cc2)nc(N2CCc3ccsc3C2C)n1.Cl` (stereo not shown) [Example 60, 6-methyl-4-(4-fluorophenylamino)-2-(7-methyl-4,5,6,7-tetrahydrothieno[2,3-c]pyridin-6-yl)pyrimidine hydrochloride], for which the IC50 in assay [1] is about 15 µM. For the same molecule, in the assay with gastric secretion, the Rel. Conc. turned out to be 0.28, the “Relative Acid Output” value is 0.65 and the Rel. Vol. is 0.65.

Regarding `Cc1cc(Nc2ccc(F)cc2)nc(N2CCc3ccccc3C2C)n1.Cl` (stereo not shown) [Example 58, 6-methyl-4-(4-fluorophenylamino)-2-(1-methyl-1,2,3,4-tetrahydroisoquinolin-2-yl)pyrimidine hydrochloride], in assay [1], the IC50 was over 25 µM. In addition, in the assay on gastric secretion, the Rel. Conc. was 0.16, the “Relative Acid Output” value was determined as 0.35 and the Rel. Vol. came out at 0.58.

For the molecule `CN(c1ccccc1)c1nc2c(c(N3CCc4ccccc4C3)n1)CCCC2.Cl` [Example 50, 2-(N-methylphenylamino)-4-(1,2,3,4-tetrahydroisoquinolin-2-yl)-5,6,7,8-tetrahydroquinazoline hydrochloride], the IC50 in assay [1] was about 16.9 µM. In the assay with gastric secretion, the Rel. Conc. is 0.29, the “Relative Acid Output” value came to 0.66 and the Rel. Vol. is 0.72.

With `CCc1nc(Nc2ccc(F)cc2C)nc(N2CCc3ccccc3C2)c1C.Cl` [Example 44, 5-methyl-6-ethyl-2-(2-methyl-4-fluorophenylamino)-4-(1,2,3,4-tetrahydroisoquinolin-2-yl)pyrimidine hydrochloride], the IC50 in assay [1] is about 11.3 µM. Moreover, in the assay on gastric secretion, the Rel. Conc. stood at 0.33, the “Relative Acid Output” value was 0.41 and the Rel. Vol. amounted to 0.27.

With `Cc1nc(Nc2ccc(F)cc2)nc(N2CCc3ccccc3[C@H]2C)c1C.Cl` [Example 16, (R)-5,6-dimethyl-2-(4-fluorophenylamino)-4-(1-methyl-1,2,3,4-tetrahydroisoquinolin-2-yl)pyrimidine hydrochloride], in assay [1], the IC50 was 1.5 µM. For the same molecule, in the assay with gastric secretion, the Rel. Conc. is 1.24, the “Relative Acid Output” value was 1.13 and the Rel. Vol. worked out at 0.96.

As to `Cc1cc(N2CCc3ccccc3C2C)nc(Nc2ccc(F)cc2C)n1.Cl` (stereo not shown) [Example 2, 6-methyl-2-(2-methyl-4-fluorophenylamino)-4-(1-methyl-1,2,3,4-tetrahydroisoquinolin-2-yl)pyrimidine hydrochloride], the IC50 in assay [1] stood at 0.9 µM. Besides, in the assay with gastric secretion, the Rel. Conc. was 0.8, the “Relative Acid Output” value stood at 0.89 and the Rel. Vol. is 0.92.

Regarding `CCc1nc(Nc2ccc(F)cc2)nc(N2CCc3ccccc3C2)c1C.Cl` [Example 45, 5-methyl-6-ethyl-2-(4-fluorophenylamino)-4-(1,2,3,4-tetrahydroisoquinolin-2-yl)pyrimidine hydrochloride], the IC50 in assay [1] turned out to be 3.1 µM. Also, in the assay with gastric secretion, the Rel. Conc. turned out to be 0.75, the “Relative Acid Output” value turned out to be 0.89 and the Rel. Vol. came to 0.84.

Consider `Cc1nc(Nc2ccc(F)cc2)nc(N2CCc3ccccc3[C@@H]2C)c1C.Cl` [Example 17, (S)-5,6-dimethyl-2-(4-fluorophenylamino)-4-(1-methyl-1,2,3,4-tetrahydroisoquinolin-2-yl)pyrimidine hydrochloride], for which the concentration for half-maximal inhibition (IC50) in assay [1] came to 1.8 µM. In addition, in the assay with gastric secretion, the Rel. Conc. is 0.97, the “Relative Acid Output” value came to 0.89 and the Rel. Vol. stood at 0.82.

Values taken from patent US5750531A, “Pyrimidine derivatives and processes for the preparation thereof” (Yuhan Corporation, priority 1994, dated 1998).
